1 substance from paper PMC6273649, “Synthesis of Novel Quaternary Ammonium Salts and Their in Vitro Antileishmanial Activity and U-937 Cell Cytotoxicity” (Molecules, 2016) can be followed below.

One series deals with U-937 cells. Nature of the series: in vitro. The following applies: U-937 cells. The method, then: U-937 promonocytes (CRL1593.2™) were obtained from the American Type Culture Collection (ATCC, Manassas, VA, USA), cultured in complete medium containing RPMI 1640 medium (Sigma) supplemented with 10% fetal bovine serum (FBS) (Gibco, Life Technologies, Grand Island, NY, USA) and 1% antibiotics (100 U/mL penicillin and 0.1 mg/mL streptomycin) (Sigma). Cells were maintained in standard conditions at 37 °C, 5% CO2 with change of medium every three days until use.
The cytotoxicity of compounds was assessed based on the viability of U-937 cells and evaluated by the MTT (3-(4,5-dimethylthiazol-2-yl)-2,5-diphenyltetrazolium bromide) method as described by others. Briefly, into each well of a 96-well cell-culture dishes 100,000 cells/100 μL were dispensed in RPMI-1640 supplemented with 10% FBS and 100 μL of the corresponding concentrations of the corresponding product. Six two fold serial dilutions were tested starting at 200 µg/mL (200, 100, 50, 25, 12.5 and 6.25 μg/mL). Cells were incubated at 37 °C with 5% CO2 for 72 h in the presence of compounds, and then the effect was determined by measuring the activity of the mitochondrial dehydrogenase by adding 10 µL/well of MTT solution (0.5 mg/mL) and incubating at 37 °C for 3 h. The reaction was stopped by adding 100 μL /well of 50% isopropanol solution with 10% sodium dodecyl sulfate for 30 min. Cell growth was determined based on the quantity of formazan produced, which was measured at 570 nm in a plate reader spectrophotometer (Bio-Rad, Hercules, CA, USA). Cells cultured in the absence of products were used as cell growth controls (negative control), while cells cultured in presence of amphotericin B (AmB, Sigma) and meglumine antimoniate (MA, Sanofi-Aventis, Bogotá, Colombia) were used as cytotoxicity controls (positive control). Each concentration was tested in triplicate in at least two independent experiments.
Cytotoxicity was determined according to the percentages of cell growth (viability) obtained for each tested compound or medium alone. Percentages of viability were calculated first using Equation (1): % Viability = (O.D. of treated cells)/(O.D. of untreated cells) × 100(1) where the O.D. of the untreated cells corresponds to 100% viability. Then, the percentage of cell growth inhibition was calculated using Equation (2): % Cell growth inhibition = 100 − % Viability(2)
The degree of cytotoxicity was established as convenient according to the LC50 values, using our own scale: high cytotoxicity: LC50 < 100 μg/mL, moderate cytotoxicity: 100 μg/mL < LC50 < 200 μg/mL; and potential non-cytotoxicity: LC50 > 200 μg/mL.

For series [1], the system named is intracellular amastigotes of L. (V) panamensis-pIR-eGFP. The series is described as follows: organism not typed. The class given is cell-based. The settings on record: L. (V) panamensis in U-937 cells, flow cytometry, 72 h; mean ± standard deviation. The procedure:
(§1) Virulent L. (V) panamensis MHOM/CO/87/UA140 strain transfected with green fluorescent protein gene called L. (V) panamensis-pIR-eGFP was maintained by successive passaging in golden hamsters (Mesocricetus auratus). Briefly, amastigotes were aspirated from cutaneous lesions of hamsters experimentally infected with promastigotes of L. (V) panamensis-pIR-eGFP. Samples were cultured in biphasic culture with Novy-MacNeal-Nicholle (NNN) medium as solid phase and PBS plus glucose, pH 6.9 as liquid phase and incubated at 26 °C to obtain promastigotes. Medium was changed every week until 2 months.
Intracellular amastigotes were obtained after infection of U-937 cells with promastigotes. Briefly, U-937 cells were dispensed in 24-well plates at a concentration of 300,000 cells/well and were treated with 1 µM of phorbol myristate acetate (PMA) (Sigma) for 48 h at 37 °C. Then, cells were infected with promastigotes in stationary growth phase (day 5) at a ratio of 1:15 cell/parasite and incubated for 3 h at 34 °C in 5% CO2. […] After 24 h of infection, cells were ready to be used in antileishmanial testing assay as described below.
The effect of compounds against intracellular amastigotes of L. (V) panamensis-pIR-eGFP was evaluated by flow cytometry using the methodology described by others. […] Infected and treated cells were maintained at 34 °C and 5% CO2 for 72 h. After 72 h, cells were washed twice with 1 mL of cold PBS and cells were removed from the bottom plate with a trypsin/EDTA ([…]) solution. Recovered cells were centrifuged at 1100 rpm for 10 min at 4 °C, the supernatant was discarded and cells were washed with 1 mL of cold PBS and centrifuged at 1100 rpm for 10 min at 4 °C. Supernatant was discarded and cells were suspended in 500 μL of PBS and analyzed by flow cytometry (FC 500MPL, Cytomics, Brea, CA, USA) using histogram analyses (Figure 2). […] Each concentration of compounds was tested in triplicate in two independent experiments.
The antileishmanial activity in intracellular amastigotes was determined according to the reduction of infected cells and parasite load (viable parasites inside infected cells) obtained for each experimental condition. The percentage of infected cell inhibition and parasite load for each concentration of each compound were calculated first using Equation (3): % infection = (% infected and treated cells ÷ % infected and untreated cells) × 100(3)
And then, the percentage of infection inhibition was calculated using Equation (4): % Inhibition = 100 − % infection(4)
On the technique in general: Flow cytometry measures light scatter and fluorescence of single cells or particles in a stream.

The test system of series [2] is axenic amastigotes of L. (V) panamensis. Nature of the series: organism not typed. In kind it is cell-based. The procedure:
as §1
The axenic amastigotes were obtained from promastigotes cutured in Schneider’s medium, as described elsewhere. Briefly, promastigotes of L. (V) panamensis-pIR-eGFP at 5 × 10^6 parasites/mL were cultured in Schneider medium (Sigma), pH 5.4 supplemented with 20% FBS and 1% antibiotics and incubation at 26 °C. Every three days, medium was changed and temperature was increased one degree each time until it reached 32 °C at which the transformation of the promastigotes into axenic amastigotes is achieved. After three days of growing as axenic amastigotes, parasites were ready to be used in the antileishmanial testing assay as described below.
The ability of compounds to kill axenic amastigotes of L. (V) panamensis was determined based on the viability of the parasites after exposure to each compound evaluated by the MTT method following the methodology described by others. Axenic amastigotes obtained as described above were harvested, washed, and adjusted at 2 × 10^6 parasites/mL in fresh Schneider’s medium with 20% FBS. Into each well of a 96-well plate 100 µL of parasite suspension (2 × 10^5 axenic amastigotes) were dispensed and then 100 µL of each concentration of the corresponding compound were added. […] Plates were incubated at 32 °C. After 72 h of incubation, the effect of each compound was determined by adding 10 µL/well of MTT and incubating at 32 °C for 3 h. The reaction was stopped as described above and the quantity of formazan produced was measured in a plate reader spectrophotometer (Bio-Rad) set at 570 nm. Axenic amastigotes cultivated in the absence of any compound but maintained under the same conditions were used as controls for growth and viability (negative control) while parasites cultivated in the presence of MA were used as controls for leishmanicidal activity (positive control). Assays were performed at least twice with three replicates per each concentration tested.
In turn, activity of compounds with axenic amastigotes was determined according to the reduction of parasite growth percentages obtained for each experimental condition. The percentage of parasite growth was calculated first using Equation (5): % parasite growth = (O.D. treated ax. amastigotes)/(O.D. of untreated ax. amastigotes) × 100(5) where the O.D. of the untreated axenic amastigotes corresponds to 100% parasite growth. Then, the percentage of parasite growth inhibition was calculated using Equation (6): % parasite growth inhibition = 100 − % parasite growth(6)

For “meglumine antimoniate [MA, reference compound]”, the “Cytotoxicity LC50” value in the series with U-937 cells (MTT, 72 h, mean ± standard deviation) was 358.2 ± 1.7 µg/mL. Moreover, the degree of cytotoxicity result with U-937 cells (authors' own scale by LC50) is “potentially non-cytotoxic”. Also, in series [1], the “Intracellular Amastigotes EC50” value was found to be 6.33 ± 0.86 µg/mL. Besides, the “Axenic Amastigotes EC50” value in series [2] (L. (V) panamensis axenic amastigotes, MTT, 72 h, mean ± standard deviation) was 312.1 ± 18.6 µg/mL. In addition, the “degree of leishmanicidal activity, axenic amastigotes” value in series [2] (authors' own scale by EC50) was “not active”.
